In patent publication US11136325B2, “Pyrrolopyrimidine and pyrrolopyridine derivatives” (GALAPAGOS NV, priority 2017, dated 2021):

system: ASK1/2 (phospho-MKK3 in H2O2-stimulated PBMCs); assay: ASK1/2 cellular assay: phospho-MKK3 in H2O2-stimulated PBMCs, western blot; format: cell-based; conditions: PBMC, 0.5 h, 3 mM H2O2, 30 min, read-out: Inhibition (pIC50) (converted)
Procedure: ASK1/2 activity in vitro was assayed by determining the quantity of phospho-MKK3 protein in H2O2-stimulated PBMCs, using western blot method.
• Lymphoprep (Axis-Shield, Cat. No. 1114545) • Ammonium chloride lysate buffer pH 7.4 (10× concentrated): • NH4Cl—final conc. 1.5 M (Kemika, Cat. No. 0137407) • NaHCO3— final conc. 100 mM (Kemika, Cat. No. 1411007) • Na2EDTA—final conc. 10 mM (Sigma Aldrich; Cat. No. E-4884) • RPMI 1640 (Lonza Cat. No. BE12-115F/U1) • FBS (Sigma Cat. No. F7524, heat inactivated 30′/56° C.) • Dimethyl sulfoxide (DMSO) (Sigma, Cat. No. D2650) • Cell lysis buffer (pH 7.4): PBS+1% Triton X-100 (Sigma Aldrich; Cat. No. X100)—10 ml • Phospho-Stop—1 tablet (Sigma, Cat. No. 4693124001) • Protease Inhibitor—1 tablet (Sigma, Cat. No. 4906837001) • Hydrogen peroxide solution 3% w/w (Sigma Aldrich, Cat. No. H-6520) • PBS (Sigma Aldrich, Cat. No. P4417-100TAB) • Microplate, 96 well, pp, v-bottom, clear (Greiner bio-one; Cat. No. 651201) • Tissue culture plate, 6 well, flat bottom with low evaporation lid (Falcon, Cat. No. 353224) • 50 mL falcon tube (TPP, Cat. No. 91050) • Pierce BCA Protein Assay Kit (Thermo Scientific, Cat. No. 23225) • Immulon® Microtiter™ 96-Well Plate 1B (Thermo Scientific, Cat. No. 3355) • Wes 12-230 kDa Master Kit (Protein Simple, Cat. No. PS-MK14) • MKK3 (D4C3) Rabbit mAb (Cell Signaling, Cat. No. 8535) • Phospho-MKK3 (Ser189)/MKK6 (Ser207) (D8E9) Rabbit mAb (Cell Signaling, Cat. No. 12280)
The assay was configured to run using the following conditions: Tested compounds concentration range: 1-0.0014 μM (7 three-fold serial dilutions); H2O2 concentration: 3 mM
To isolate the PBMCs from buffy coat, the buffy coat was diluted 1:1 in PBS, then the dilute buffy-coat (25 mL) was carefully pipetted on top of 20 mL of Lymphoprep in a falcon tube. The tubes were then spun for 35 min at 400×g. The upper plasma layer is then carefully removed leaving the layer containing the MNCs. The layer containing the MNCs is then transferred to a new tube, PBS is added up to a total volume of 50 mL and the tube is then spun for 10 minutes (200×g, 25° C.). The resulting pellet is then resuspended in 2 mL PBS, the washing step was repeated. The final pellets were resuspended in ammonium chloride lysate buffer up to 50 mL, mixed gently and centrifuged for 10 minutes (200×g, 25° C.), resuspended in 2-3 mL of cell medium and diluted up to 50 mL in cell medium. The cell density of a 1/20 dilution in cell medium was determined using an automated cell counter.
10×10^6 PBMCs were seeded per well in 1 mL of RPMI 1640 cell medium supplemented with 10% FBS in 6-well plates. Seven sets of three-fold serial dilutions of compounds in DMSO starting from 1 mM in 96-well v-bottom plate were prepared. The DMSO compound solutions were diluted 100× in the cell medium. 200 μL of 100× diluted compound solution were added per well, control wells contained 200 μL of 1% DMSO prepared in cell medium. 7.5 mM H2O2 in cell medium was prepared and 800 μL was added to each well, except the negative control well to which 800 μL of cell medium was added. The cells were incubated for 30 min at 37° C., 5% CO2, 95% humidity. The cells were transferred to 2 mL Eppendorf tubes and centrifuged for 10 minutes at 300×g at 4° C., they were then washed with 1 mL PBS, the cell pellet was resuspended in 100 μL of lysis buffer and incubated on ice for 30 minutes. After which time the cell lysates were centrifuged for 5 minutes at 10000×g at 4° C. and the supernatants were then stored at −20° C.
Samples were diluted 5× in cell lysis buffer and total protein concentration was determined in 96-well Immulon 1B plate using BCA Protein Assay Kit following manufacturer's instructions.
Western blot assay was performed using Protein Simple Wes Master Kit and device, following manufacturer's instructions. 0.5 mg/mL of total proteins was loaded per sample; phospho-MKK3 and MKK3 antibodies were diluted 300×. […]

Row | Structure (SMILES) | IC50 [nM]
1 | Cc1c[nH]c2ncnc(N3CCC(NC(=O)c4cc(N)ncc4Cl)CC3)c12 [Compound 3, 2-amino-5-chloro-N-[1-(5-methyl-7H-pyrrolo[2,3-d]pyrimidin-4-yl)-4-piperidyl]-pyridine-4-carboxamide] | 39.8
2 | Cc1c[nH]c2ncnc(N3CCC(NC(=O)c4cc(N)ncc4F)CC3)c12 [Compound 1, 2-amino-5-fluoro-N-[1-(5-methyl-7H-pyrrolo[2,3-d]pyrimidin-4-yl)-4-piperidyl]pyridine-4-carboxamide] | 8.91
3 | Nc1cc(C(=O)NC2CCN(c3ncnc4[nH]cc(Cl)c34)CC2)ccn1 [Compound 4, 2-amino-N-[1-(5-chloro-7H-pyrrolo[2,3-d]pyrimidin-4-yl)-4-piperidyl]pyridine-4-carboxamide] | 7.94
4 | Nc1cc(C(=O)NC2CCN(c3ncnc4[nH]cc(Cl)c34)CC2)c(F)cn1 [Compound 5, 2-amino-N-[1-(5-chloro-7H-pyrrolo[2,3-d]pyrimidin-4-yl)-4-piperidyl]-5-fluoro-pyridine-4-carboxamide] | 6.31
5 | Cc1cnc(N)cc1C(=O)NC1CCN(c2ncnc3[nH]cc(C)c23)CC1 [Compound 2, 2-amino-5-methyl-N-[1-(5-methyl-7H-pyrrolo[2,3-d]pyrimidin-4-yl)-4-piperidyl]pyridine-4-carboxamide] | 3.16
6 | Cc1c[nH]c2ncc(C#N)c(N3CCC(NC(=O)c4cc(N)ncc4F)CC3)c12 [Compound 6, 2-amino-N-[1-(5-cyano-3-methyl-1H-pyrrolo[2,3-b]pyridin-4-yl)-4-piperidyl]-5-fluoro-pyridine-4-carboxamide] | 12.6
7 | Nc1cc(C(=O)NC2CCN(c3ccnc4[nH]cc(Cl)c34)CC2)c(F)cn1 [Compound 7, 2-amino-N-[1-(3-chloro-1H-pyrrolo[2,3-b]pyridin-4-yl)-4-piperidyl]-5-fluoro-pyridine-4-carboxamide] | 12.6
